Assay [1] deals with A549. Briefly: Cytotoxicity against human A549 cells assessed as cell growth inhibition at 10 uM incubated for 48 hrs by MTT assay relative to control. In kind it is functional. (Tetrazolium dyes change colour on reduction, which living cells bring about.)
In assay [2] the test system is A549. Briefly: Cytotoxicity against human A549 cells assessed as cell growth inhibition incubated for 48 hrs by MTT assay. In kind it is functional, cell-based. Particulars: A549, 48 h.
Assay [3] deals with A549. As to the kind of experiment: Induction of cell cycle arrest in human A549 cells assessed as accumulation at G2/M phase at 10 uM incubated for 48 hrs by PI staining based flow cytometry analysis. In kind it is functional.

Each structure is given as a SMILES string. pIC50: −log10 of the molar value. Calls of active or inactive are those of the source. The rule behind the calls is not given here. Where only a bound is given, the exact number is not on record here.

The term inhibition denotes the percentage by which the read-out fell short of the control. The pIC50 is −log10 of the IC50, conventionally taken in molar units. As to `O=C(c1ccc(Br)cc1)c1cccc2c3ccccc3n(-c3ncccn3)c12`, in assay [1], the inhibition at 10 µM was found to be 50%. In addition, the negative logarithm of the IC50 (pIC50) in assay [2] was 5.12. In addition, in assay [3], the result was Active.
For the molecule `O=C(c1ccc(Cl)cc1)c1cccc2c3ccccc3n(-c3ncccn3)c12`, the inhibition at 10 µM in assay [1] came out at 50%. Moreover, the negative-log IC50 (pIC50) in assay [2] was 5.17. For the same molecule, the outcome in assay [3] was Active.
The corresponding values for `O=C(c1ccc(C(F)(F)F)cc1)c1cccc2c3ccccc3n(-c3ncccn3)c12` are 50%, 4.81 and “Active”.
Turning to `Cc1c2ccncc2c(C)c2c1[nH]c1ccccc12` [ELLIPTECINE], the pIC50 in assay [2] is 5.46.
Consider `O=C(c1ccc(O)c(O)c1)c1cccc2c3ccccc3n(-c3ncccn3)c12`, for which the inhibition at 10 µM in assay [1] stood at 50%. For the same molecule, the pIC50 in assay [2] is 5.05.
For the molecule `O=C(c1ccc(OCc2ccccc2)cc1)c1cccc2c3ccccc3n(-c3ncccn3)c12`, the inhibition at 10 µM in assay [1] was below 50%. The negative logarithm of the IC50 (pIC50) in assay [2] was 5.67.
With `O=C(c1cccc(Cl)c1)c1cccc2c3ccccc3n(-c3ncccn3)c12`, the inhibition at 10 µM in assay [1] worked out at 50%. In addition, the pIC50 in assay [2] is 5.14. In assay [3], the outcome was Active.
As to `COc1cccc(C(=O)c2cccc3c4ccccc4n(-c4ncccn4)c23)c1`, the inhibition at 10 µM in assay [1] stood at 50%. For the same molecule, the pIC50 in assay [2] is 5.62. Besides, in assay [3], the outcome was Active.
The corresponding values for `O=C(c1ccc(F)cc1)c1cccc2c3ccccc3n(-c3ncccn3)c12` are below 50%, 5.59 and “Active”.
For `COc1ccc(C(=O)c2cccc3c4ccccc4n(-c4ncccn4)c23)cc1OC`, the inhibition at 10 µM in assay [1] was 50%. Besides, the pIC50 in assay [2] was 5.51. Further, in assay [3], the result was Active.
Consider `O=C(c1ccco1)c1cccc2c3ccccc3n(-c3ncccn3)c12`, for which the inhibition at 10 µM in assay [1] stood at 50%. In assay [2], the negative-log IC50 (pIC50) was 4.83. The result in assay [3] was Active.
`O=C(c1cccs1)c1cccc2c3ccccc3n(-c3ncccn3)c12`: in assay [1], the inhibition at 10 µM was below 50%. Further, in assay [2], the negative-log IC50 (pIC50) was 5.40. Also, the result in assay [3] was Active.
Turning to `CC(C)(C)OC(=O)c1cccc2c3cc(Cl)ccc3n(-c3ncccn3)c12`, in assay [3], the outcome was Active.
Consider `O=C(c1ccccc1Cl)c1cccc2c3ccccc3n(-c3ncccn3)c12`, for which the inhibition at 10 µM in assay [1] is 50%. For the same molecule, the negative logarithm of the IC50 (pIC50) in assay [2] is 5.16. Moreover, in assay [3], the outcome was Active.
For `O=C(O)c1cccc2c3ccccc3n(-c3ncccn3)c12`, the negative-log IC50 (pIC50) in assay [2] is 4.81.
`COc1ccccc1C(=O)c1cccc2c3ccccc3n(-c3ncccn3)c12`: the inhibition at 10 µM in assay [1] was below 50%. Moreover, the pIC50 in assay [2] is 5.40. For the same molecule, the result in assay [3] was Active.
As to `O=C(c1ccc(I)cc1)c1cccc2c3ccccc3n(-c3ncccn3)c12`, in assay [2], the pIC50 was 4.90. Besides, in assay [3], the outcome was Active.
Turning to `O=C(c1ccccc1)c1cccc2c3ccccc3n(-c3ncccn3)c12`, in assay [1], the inhibition at 10 µM was found to be 50%. Moreover, the pIC50 in assay [2] was 5.27. Besides, the result in assay [3] was Active.
For `CCOC(=O)c1cccc2c3ccccc3n(-c3ncccn3)c12`, the inhibition at 10 µM in assay [1] was 50%.
As for `O=C(OCc1ccccc1)c1cccc2c3ccccc3n(-c3ncccn3)c12`, the pIC50 in assay [2] is 5.28. For the same molecule, in assay [3], the outcome was Active.
Take `N#Cc1cccc(C(=O)c2cccc3c4ccccc4n(-c4ncccn4)c23)c1`: in assay [1], the inhibition at 10 µM is below 50%. Further, the pIC50 in assay [2] was 4.86.
With `Cc1ccc(C(=O)c2cccc3c4ccccc4n(-c4ncccn4)c23)cc1`, the inhibition at 10 µM in assay [1] is 50%. In addition, the pIC50 in assay [2] is 5.00. Further, in assay [3], the outcome was Active.

Values taken from ChEMBL document CHEMBL5154761, “Design, synthesis, and evaluation of 9-(pyrimidin-2-yl)-9H-carbazole derivatives disrupting mitochondrial homeostasis in human lung adenocarcinoma” (Eur J Med Chem, 2022).
